Data taken from patent publication US9079870B2, “Thiol mediated/activated prodrugs of sulfur dioxide (SO2) having anti-bacterial activity” (priority 2012, dated 2015).
Values after ≈ are worked out from the molar mass of the structure shown. Values joined by “and” are separate entries in the source; they are usually repeats but may differ in a detail not shown here. Equal values may be shown once. Read-outs that look alike come from different tables or passages of the source.

Legend:
S. aureus ATCC 29213 = experiment: Antibacterial activity (MIC) against S. aureus; format: cell-based
From the text: (§1) The antibacterial activity of thiol mediated/activated prodrugs of SO2 i.e. 2,4-dinitrophenylsulfonamide related compounds against the gram positive pathogenic bacteria selected from the group S. aureus, E. feacalis is given herein below Table 2a.

E. feacalis ATCC 29212 = experiment: Antibacterial activity (MIC) against E. feacalis; format: cell-based
From the text: as §1

[1] = test system: Mycobacterium tuberculosis H37Rv strain; experiment: Antimycobacterial activity assay (MIC, 7H11 agar); format: cell-based; settings: Mtb H37Rv
[2] = Pararosaniline-based colorimetric assay for sulfur dioxide; format: physicochemical; settings: detected with pararosaniline-based colorimetric assay; 10 equiv cysteine, pH 7.4
[3] = 100 µM, pH 7.4
[4] = Table 4; values are for the amine without a DNs group; cited from earlier work
[5] = test system: human embryonic kidney 293 cells (HEK); experiment: Cell viability assay
[6] = Cysteine-activated sulfur dioxide release, ion chromatography analysis of sulfite; settings: for SO2 yield, 5 min: 5 min after treatment of compound (100 1M) with 10 equiv of cysteine in pH 7.4 phosphate buffer; for SO2 yield in 30 min (%): 30 min after commencement of the reaction with cysteine (10 equiv); for SO2 yield in 30 min (%) / Max SO2 yield: pH 7.4; for Max SO2 yield: sum of sulfite and sulfate, compound 100 μM, cysteine 10 equiv; for K (min−1), rate of sulfite release: compound (100 μM), cysteine (10 equiv), pH 7.4 phosphate buffer (20 mM); for % SO2 (30 min): 30 min after commencement of the reaction with thiol, per mole of compound
[7] = Staphylococcus aureus, ATCC29213; read-out: MIC (μg/mL) S. aureus ATCC 29213
[8] = Enterococcus faecalis, ATCC29212; read-out: MIC (μg/mL) E. feacalis ATCC 29212
[9] = Mycobacterium tuberculosis, H37RV, 672 h, Table 3, inhibit 99% of bacterial growth
[10] = Mycobacterium tuberculosis, H37RV, Table 2b
[11] = Mycobacterium tuberculosis, H37RV, Table 2b, inhibit 99% of bacterial growth
[12] = Mycobacterium tuberculosis, H37RV, Table 3
[13] = Mycobacterium tuberculosis, H37RV, Table 3, inhibit 99% of bacterial growth
[14] = 30 min after treatment of compound (100 1M) with 10 equiv of cysteine in pH 7.4 phosphate buffer
[15] = Table 3, 30 min after treatment of compound (100 μM) with 10 equiv of cysteine in pH 7.4 phosphate buffer
[16] = Mycobacterium tuberculosis, H37RV, 672 h, Table 3, inhibit 99% of bacterial growth, read-out: MIC

O=[N+]([O-])c1ccc(S(=O)(=O)NCc2ccccc2)c([N+](=O)[O-])c1 [Compound 1, N-benzyl-2,4-dinitrophenylsulfonamide]
MIC (S. aureus ATCC 29213; [7]): > 16 µg/mL | MIC (E. feacalis ATCC 29212; [8]): > 16 µg/mL | MIC [1, 9]: ≤ 25 µg/mL | MIC [1, 10]: 0.15 µM | MIC [1, 11]: ~0.05 µg/mL | MIC [1, 12]: 0.15 µM | MIC [1, 13]: 0.05 µg/mL | SO2 source [2]: yes | t1/2 (min) of SO2 generation [3]: ~2 min | t1/2 (min) of SO2 generation ([3]; buffer): ~2 g·min | pKaH [4]: 9.34 | IC50 ([5]; Homo sapiens, HEK293, read-out: IC50, cell viability): 7 µM | selectivity (SI) toward Mtb over human embryonic kidney cells ([5]; based on the MIC and IC50): ~50 and 47 | SO2 yield, 5 min [6]: 83 µM | SO2 yield in 30 min (%) [6]: ~100% | SO2 yield, 30 min [6, 14]: 100 µM | SO2 yield, 30 min [6, 15]: 100 µM | Max SO2 yield [6]: 100 µM

COc1ccc(CNS(=O)(=O)c2ccc([N+](=O)[O-])cc2[N+](=O)[O-])cc1 [Compound 2, N-(4-methoxybenzyl)2,4-dinitrophenylsulfonamide]
MIC (S. aureus ATCC 29213; [7]): > 16 µg/mL | MIC (E. feacalis ATCC 29212; [8]): > 16 µg/mL | MIC [1, 10]: 0.68 µM | MIC [1, 11]: 0.25 µg/mL | SO2 yield, 5 min [6]: 74 µM | SO2 yield, 30 min [6, 14]: 84 µM

O=[N+]([O-])c1ccc(S(=O)(=O)Nc2ccccc2)c([N+](=O)[O-])c1 [Compound 6, N-phenyl, 2,4-dinitrophenylsulfonamide]
MIC [1, 9]: ≤ 25 µg/mL | MIC [1, 10]: 9.69 µM | MIC [1, 11]: 3.13 µg/mL | MIC [1, 12]: 9.7 µM | MIC [1, 13]: 3.13 µg/mL | SO2 source [2]: yes | t1/2 (min) of SO2 generation ([3]; buffer): 25 min | pKaH [4]: 4.64 | SO2 yield, 5 min [6]: 37 µM | SO2 yield in 30 min (%) [6]: 55% | SO2 yield, 30 min [6, 14]: 55 µM | SO2 yield, 30 min [6, 15]: 55 µM | K (min−1), rate of sulfite release [6]: 0.0273 min⁻¹ | Max SO2 yield [6]: 94 µM

COc1ccccc1NS(=O)(=O)c1ccc([N+](=O)[O-])cc1[N+](=O)[O-] [Compound 8, N-(2-methoxyphenyl) 2,4-dinitrophenylsulfonamide]
MIC (S. aureus ATCC 29213; [7]): 8 µg/mL (≈ 22.6 µM) | MIC (E. feacalis ATCC 29212; [8]): 16 µg/mL (≈ 45.3 µM) | MIC [1, 10]: 8.85 µM | MIC [1, 11]: 3.13 µg/mL | SO2 yield, 5 min [6]: 57 µM | SO2 yield, 30 min [6, 14]: 86 µM

O=[N+]([O-])c1ccc(S(=O)(=O)Nc2cccc(F)c2)c([N+](=O)[O-])c1 [Compound 9, N-(3-fluorophenyl) 2,4-dinitrophenylsulfonamide]
MIC ([1]; Table 2b, read-out: MIC): 73 µM | MIC ([1]; Table 3, read-out: MIC): 73 µM | SO2 source [2]: yes | pKaH [4]: 3.38 | SO2 yield, 5 min [6]: 5 µM | SO2 yield, 30 min [6, 14]: 24 µM | SO2 yield, 30 min [6, 15]: 24 µM | K (min−1), rate of sulfite release [6]: 0.0106 min⁻¹ | Max SO2 yield [6]: 86 µM

O=[N+]([O-])c1ccc(S(=O)(=O)Nc2ccc(F)cc2)c([N+](=O)[O-])c1 [Compound 10, N-(4-fluorophenyl) 2,4-dinitrophenylsulfonamide]
MIC (S. aureus ATCC 29213; [7]): 16 µg/mL (≈ 46.9 µM) | MIC (E. feacalis ATCC 29212; [8]): > 16 µg/mL | MIC [1, 10]: 18.3 µM | MIC [1, 11]: 6.25 µg/mL | SO2 yield, 5 min [6]: 18 µM | SO2 yield, 30 min [6, 14]: 55 µM

N#Cc1ccc(NS(=O)(=O)c2ccc([N+](=O)[O-])cc2[N+](=O)[O-])cc1 [Compound 11, N-(4-cyanophenyl) 2,4-dinitrophenylsulfonamide]
MIC (S. aureus ATCC 29213; [7]): > 16 µg/mL | MIC (E. feacalis ATCC 29212; [8]): > 16 µg/mL | MIC [1, 10]: > 100 µM | MIC [1, 11]: > 50 µg/mL | SO2 yield, 5 min [6]: 6 µM | SO2 yield in 30 min (%) [6]: 5% | SO2 yield, 30 min [6, 14]: 5 µM

CN(Cc1ccccc1)S(=O)(=O)c1ccc([N+](=O)[O-])cc1[N+](=O)[O-] [Compound 15, (N-benzyl, N-methyl) 2,4-dinitrophenylsulfonamide]
MIC (S. aureus ATCC 29213; [7]): 8 µg/mL (≈ 22.8 µM) | MIC (E. feacalis ATCC 29212; [8]): > 16 µg/mL | MIC [1, 9]: ≤ 25 µg/mL | MIC [1, 10]: 1.1 µM | MIC [1, 11]: 0.4 µg/mL | MIC [1, 12]: 1.1 µM | MIC [1, 13]: 0.4 µg/mL | MIC ([1]; Mycobacterium tuberculosis, H37RV, text to Table 2b): < 1000 µg/mL | SO2 source [2]: yes | t1/2 (min) of SO2 generation [3]: 4 min | t1/2 (min) of SO2 generation ([3]; buffer): ~4 g·min | pKaH [4]: 9.58 | SO2 yield, 5 min [6]: 79 µM | SO2 yield, 30 min [6, 14]: 100 µM | SO2 yield, 30 min [6, 15]: 100 µM | Max SO2 yield [6]: 100 µM

CCCN(Cc1ccccc1)S(=O)(=O)c1ccc([N+](=O)[O-])cc1[N+](=O)[O-] [Compound 16, (N-benzyl, N-propyl) 2,4-dinitrophenylsulfonamide]
MIC ([1]; Table 2b, read-out: MIC): 8.25 µM | MIC ([1]; Table 3, read-out: MIC): 8.25 µM | SO2 source [2]: yes | pKaH [4]: 9.68 | SO2 yield, 5 min [6]: 68 µM | SO2 yield, 30 min [6, 14]: 96 µM | SO2 yield, 30 min [6, 15]: 96 µM | K (min−1), rate of sulfite release [6]: 0.1517 min⁻¹ | Max SO2 yield [6]: 96 µM

O=[N+]([O-])c1ccc(S(=O)(=O)N2CCOCC2)c([N+](=O)[O-])c1 [Compound 23, 4-[(2,4-dinitrophenyl)sulfonyl]morpholine]
MIC [1, 16]: ≤ 25 µg/mL | MIC [1, 12]: 19.6 µM | MIC [1, 13]: 6.25 µg/mL | SO2 source [2]: yes | melting point: 144 to 145 °C | SO2 yield, 30 min [6, 15]: 96 µM

O=[N+]([O-])c1ccc(S(=O)(=O)N2CCCCC2)c([N+](=O)[O-])c1 [Compound 24, 1-[(2,4-dinitrophenyl)sulfonyl]piperidine]
MIC (S. aureus ATCC 29213; Staphylococcus aureus, ATCC29213, read-out: MIC (μg/mL) S. aureus ATCC 29213): 4 µg/mL (≈ 12.7 µM) | MIC (E. feacalis ATCC 29212; Enterococcus faecalis, ATCC29212, read-out: MIC (μg/mL) E. feacalis ATCC 29212): > 16 µg/mL | MIC [1, 16]: ≤ 25 µg/mL | MIC [1, 12]: 2.5 µM | MIC [1, 13]: 0.78 µg/mL | SO2 source [2]: yes | melting point: 138 °C | SO2 yield, 30 min [6, 15]: 91 µM

O=[N+]([O-])c1ccc(S(=O)(=O)N(CCCN(Cc2ccccc2)S(=O)(=O)c2ccc([N+](=O)[O-])cc2[N+](=O)[O-])Cc2ccccc2)c([N+](=O)[O-])c1 [Compound 34, N,N′-(propane-1,3-diyl)bis(N-benzyl-2,4-dinitrobenzenesulfonamide)]
melting point: 186 to 189 °C | % SO2 (30 min) [6]: 152%

COc1cccc(N(CCCN(Cc2ccccc2)S(=O)(=O)c2ccc([N+](=O)[O-])cc2[N+](=O)[O-])S(=O)(=O)c2ccc([N+](=O)[O-])cc2[N+](=O)[O-])c1 [Compound 36, N-benzyl-N-(3-(N-(3-methoxyphenyl)-2,4-dinitrophenylsulfonamido)propyl)-2,4-dinitrobenzenesulfonamide]
melting point: 108 to 110 °C | % SO2 (30 min) [6]: 184%

COc1ccc(N(CCCN(Cc2ccccc2)S(=O)(=O)c2ccc([N+](=O)[O-])cc2[N+](=O)[O-])S(=O)(=O)c2ccc([N+](=O)[O-])cc2[N+](=O)[O-])cc1 [Compound 37, N-benzyl-N-(3-(N-(4-methoxyphenyl)-2,4-dinitrophenylsulfonamido)propyl)-2,4-dinitrobenzenesulfonamide]
melting point: 118 to 120 °C | % SO2 (30 min) [6]: 183%

O=[N+]([O-])c1ccc(S(=O)(=O)N(CCCN(c2ccccc2)S(=O)(=O)c2ccc([N+](=O)[O-])cc2[N+](=O)[O-])Cc2ccccc2)c([N+](=O)[O-])c1 [Compound 38, N-benzyl-N-(3-(2,4-dinitro-(N-phenyl)phenylsulfonamido)propyl)-2,4 dinitro benzene sulfonamide]
melting point: 151 to 153 °C | % SO2 (30 min) [6]: 160%

O=[N+]([O-])c1ccc(S(=O)(=O)N(CCCN(c2ccccc2F)S(=O)(=O)c2ccc([N+](=O)[O-])cc2[N+](=O)[O-])Cc2ccccc2)c([N+](=O)[O-])c1 [Compound 39, N-benzyl-N-(3-(N-(2-fluorophenyl)-2,4-dinitrophenylsulfonamido)propyl)-2,4-dinitrobenzenesulfonamide]
melting point: 151 to 153 °C | % SO2 (30 min) [6]: 141%
